Assay results published in patent US20230310444A1, “COMPOSITIONS AND METHODS FOR TREATING DISEASES AND DISORDERS” (Curis, Inc., priority 2020, published 2023).
Entries after “also recorded” stand apart in the source; their conditions may differ. Where two headings read alike, the source gives them in different places.

Assays:
[1] = tested on: resistant or refractory, advanced NHL; assay: Phase I dose escalation trial of Compound 1 oral monotherapy in NHL (NCT03328078); assay type: in vivo, human
Description: Seven dosing cohorts included 50 and 100 mg QD, and 50, 100, 200, 300, or 400 mg BID of daily continuous oral monotherapy in 21-Day cycles. Objective included safety and tolerance (primary), pk/pd and early efficacy (secondary), and biomarker correlations (exploratory). 31 patients with resistant or refractory, advanced NHL have been enrolled.

WM = assay type: in vivo, human
Description: The patient remained asymptomatic for over 4 years with a slow increase in m-protein and IgM during that time. By mid-2017 they started to experience increased fatigue. […] There was no evidence of CXCR4 genomic alteration. […] Several options were discussed including clinical trials and standard of care Bruton’s tyrosine kinase inhibitor (BTKi) therapy.
Baseline testing in December 2018 included a bone marrow biopsy showing 5-10% involvement by WM, m-protein of 1.66 g/dL, IgM 2,801 mg/dL, and a computed tomography scan without pathological lymphadenopathy or hepatosplenomegaly. Quantitative immunoglobulins and serum protein electrophoresis were obtained each cycle to determine response to treatment (FIG. 1).
The patient initiated treatment at the first dose level, 50 mg. […] Using a standard 3+3 design the subsequent dose level, 100 mg po BID, was cleared per protocol. Considering evidence of response without noted toxicity, the patient was a candidate to escalate to 100 mg po BID starting with cycle 7 day 1 in April 2019. […] They reported a significant improvement in their quality of life with resolution of fatigue and returned to a rigorous daily exercise program that they had been unable to perform for the last 2 years due to WM-related symptoms. In August 2019 they were noted to have an asymptomatic grade 2 creatine phosphokinase (CPK) elevation, extensive work-up and physical exam was unrevealing. […] During cycles 15 through 20, while on the 200 mg po BID dose, the patient’s IgM plateaued around 1500 mg/dL and m-protein plateaued near 0.9 g/dL. Based on evolving safety data at higher dose levels, the patient was escalated to […] starting with cycle 20 in 1/2020.

[2] = 200 mg po BID, cycles 15 through 20

With `Cc1cc(-c2nc(C(=O)Nc3cc4oc(N5CCOCC5)nc4nc3N3CC[C@@H](O)C3)co2)ccn1` [Compound 1] the “safety and tolerance overall” value ([1]; 50 mg QD to 400 mg BID) was “well tolerated; also recorded: good safety and tolerance”, the “Anemia, Grade 3 or Higher” value ([1]; 200 mg BID N=5) was 0 n (%) [E] and the “Thrombocytopenia, All Grades” value ([1]; 200 mg BID N=5) was 0 n (%) [E]. The “Thrombocytopenia, Grade 3 or Higher” value ([1]; 200 mg BID N=5) was 0 n (%) [E], the “Anemia, Grade 3 or Higher” value ([1]; 300 mg BID N=6) was 0 n (%) [E] and the “Thrombocytopenia, All Grades” value ([1]; 300 mg BID N=6) was 0 n (%) [E]. The “Thrombocytopenia, Grade 3 or Higher” value ([1]; 300 mg BID N=6) was 0 n (%) [E], the “Neutropenia, Grade 3 or Higher” value ([1]; 400 mg BID N=8) was 0 n (%) [E] and the “Tumor Reduction” value ([1]; DLBCL (transformed MZL), initial 50 mg qd, final 50 mg qd) was 24%. The “Tumor Reduction” value ([1]; DLBCL-ABC, initial 400 mg bid, final 400 mg bid) was 42%, the “Tumor Reduction” value ([1]; DLBCL, initial 50 mg bid, final 50 mg bid) was 11% and the “Tumor Reduction” value ([1]; FL, initial 100 mg qd, final 50 mg qd) was 49%. The “Tumor Reduction” value ([1]; LPL, initial 200 mg bid, final 300 mg bid *) was 20%, the “Tumor Reduction” value ([1]; MALT/MZL, initial 400 mg bid, final 300 mg bid*) was 25% and the “Tumor Reduction” value ([1]; MZL, initial 400 mg bid, final 400 mg bid) was 5%. The “Tumor Reduction” value ([1]; WM, initial 50 mg bid, final 300 mg bid *) was 66%, the “pharmacodynamic changes, cytokines” value ([1]; in vivo) was “cytokine reductions” and the “pharmacokinetics, exposure versus dose” value ([1]; in vivo) was “dose-proportional increases in exposure”. The clinical activity ([1]; summary) was “preliminary clinical activity”, the pharmacokinetic properties ([1]; summary) was “desirable pharmacokinetic properties” and the disease control ([1]; treatment duration between < 1 and 18+ months) was “sustained disease control”. The IgM (WM; 50 mg, cycle 6 day 1) was 2639 mg/dL, the IgM (WM; 50 mg, during first 2 cycles, baseline 2801 mg/dL) was 2866 mg/dL and the m-protein (WM; 50 mg, first six 21-day cycles, baseline 1.66 g/dL) was 1.55 g/dL. For the same molecule, the response (WM; 100 mg po BID, cycles 7 and 8) was “stable disease (SD)”, the IgM plateau (WM; [2]) was “around 1500 mg/dL” and the m-protein plateau (WM; [2]) was ~0.9 g/dL. It also gave an IgM (WM; 300 g po BID from cycle 20, C22 day 1) of 1241 mg/dL, a m-protein (WM; after 100 mg po BID cycles 7-8, prior to 200 mg BID escalation) of 1.37 g/dL and a m-protein (WM; from cycle 20, C22 day 1) of 0.68 g/dL.
